Test results from US9169241B2, “Quinolinyloxyphenylsulfonamides” (Max-Planck-Gesellschaft Zur Forderung der Wissenschaften …, priority 2009, dated 2015).
Like-named read-outs stand apart in the source and are kept apart here.

Legend:
[1] = test system: C8161; experiment: Apoptosis assay (Cellomics, nucleus condensation); assay type: cell-based; settings: Homo sapiens, Table III, read-out: Apoptosis induction in C8161
Text: (§1) The Cellomics BioApplication (Thermo Fischer Cellomics Products, Pittsburgh, Pa.) is an automated image analysis algorithm that provides detailed analysis of phenotypes related to apoptosis. As one of the most prominent characteristics of apoptotics cell a nucleus condensation takes place. This can be measured fluorescence signal intensity using a CCD camera on fully automated microscope system. The Cellomics system is able to quantify the fluorescence intensity per single nucleus and calculates the variation of signal intensity in each cell population. […] Additionally the number of detected cell decreases normally in apoptotic cell populations. In detail 5000 cell per 96 well were labeled with DNA intercalating dye (Hoechst 33342, Sigma, Steinheim, Germany) to visualize the nucleus in a fluorescence microscope under live conditions. The apoptosis assay was performed 24 h and 48 h after addition of compound at concentrations 12.5 μM, 6.25 μM, 3.125 μM, 1.56 μM, 0.78 μM, 0.39 μM as well as DMSO control for 48 h.

[2] = test system: Hs578T; experiment: Apoptosis assay (Cellomics, nucleus condensation); assay type: cell-based; settings: Homo sapiens, Hs-578T, Table III, read-out: Apoptosis induction in Hs578T
Text: as §1

[3] = test system: SF126; experiment: Apoptosis assay (Cellomics, nucleus condensation); assay type: cell-based; settings: Homo sapiens, SF-126, Table III, read-out: Apoptosis induction in SF126
Text: as §1

[4] = test system: SF763; experiment: Apoptosis assay (Cellomics, nucleus condensation); assay type: cell-based; settings: Table III, read-out: Apoptosis induction in SF763
Text: as §1

[5] = test system: U138; experiment: Apoptosis assay (Cellomics, nucleus condensation); assay type: cell-based; settings: Table III, read-out: Apoptosis induction in U138
Text: as §1

[6] = test system: indicated cell line; experiment: Wound healing migration assay (Table IV); assay type: cell-based; settings: compounds at 12.5, 6.25, 3.125 μM, 48 h-72 h
Experimental: This method mimics cell migration during wound healing in vivo. The basic steps involve creating a “wound” in a cell monolayer, capturing the images at the beginning and at regular intervals during cell migration to close the wound, and comparing the images to quantify the migration rate of the cells. In detail, 150000 cell/24 well have been seeded and allowed to form a monolayer overnight. Subsequently a “wound” or “scratch” has been performed with a 1000 μl pipette tip. The STDV of wound size is normally below 10% at time point t0. The assay was stopped by fixation with 0.05% Crystal violet/20% methanol when control scratches were closed. The assay was terminated between 48 h and 72 h depending on the migration potential of the indicated cell line. The “wounds” were visualized with a Zeiss Axiovert S100 microscope (Carl Zeiss UK, Welwyn Garden City, UK). The tested compounds were used at 12.5 μM, 6.25, 3.125 μM and DMSO control. IC50 values have been calculated as 50% wound size in between t0 and t48 or t72.

[7] = test system: Hs578T; experiment: Matrigel outgrowth assay/branching assay; assay type: cell-based; settings: Homo sapiens, Hs-578T; HS578T cell line; Table Ib; read-out: Total branching inhibition in Matrigel HS578T
How it was run: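 Invasive outgrowth into a 3 mg/ml Matrigel gel is judged from images taken after 48, 72 and 96 h of exposure to 3.125, 1.56 or 0.78 μM compound, with DMSO as control. Positive means total inhibition of branching.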

[8] = test system: tumor cell; experiment: Matrigel outgrowth assay/branching assay (Table Va); assay type: cell-based
Experimental: The Matrigel outgrowth assay is based on the ability of tumor cell to penetrate a solid gel of extracellular matrix proteins mimicking the metastasis formation in vivo. While cells with low invasive potential appear as roundish cell or cell cluster, cells with high invasive potential penetrate the Matrigel and form polymorphic structures. In detail 65 μl of Matrigel matrix (Matrigel™ Matrix, BD Biosciences, Bedford, Mass., USA) with a concentration of 3 mg/ml have been polymerized in 96 well plates for 1 h at 37° C. Subsequently 5000 cell/well were seeded into each well containing cell culture medium and indicated compound with concentrations of 3.125 μM, 1.56 μM and 0.78 μM as well as DMSO control. After 48 h, 72 h and 96 h images of cell were taken on an inverted microscope using a 5× objective (Zeiss Axiovert S100 microscope Carl Zeiss UK, Welwyn Garden City, UK). Only compound concentrations were total branching inhibition was evident were accounted as positive. Method was used as previously described, with some modifications (Thompson E W, et al. Association of increased basement membrane invasiveness with absence of estrogen receptor and expression of vimentin in human breast cancer cell lines. J Cell Physiol 1992; 150:534-44).

[9] = test system: cells; experiment: Boyden chamber migration assay (Table VI); assay type: cell-based; settings: Homo sapiens, Hs-578T, 16 h, Hs578T cells; 16 h migration
Experimental: The Boyden chamber assay is based on a chamber of two medium-filled compartments separated by a microporous membrane of 8 μM (Cell culture insert 8.0 μM pore size, BD Biosciences, Bedford, Mass.). The boyden chamber migration assays were carried out according to the supplier's instructions. In general, 20000 cells are placed in the upper compartment with medium containing 0% FCS plus 0.1% BSA and are allowed to migrate 16 h through the pores of the membrane into the lower compartment, which is filled with cell culture medium containing 10% FCS as chemotactic agents. The cells remaining in the insert were removed with a cotton swab, and the cells on the bottom of the filter were fixed and counted. (Zhang Y X, et al. AXL is a potential target for therapeutic intervention in breast cancer progression. Cancer Res. 2008; 68:1905-15).

[10] = test system: viable cells in culture; experiment: Cell viability assay at 10 μM (CellTiter-Glo, Table VII); assay type: cell-based; settings: compound 10 μM, 72 h;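 also: graded A 0-20%; B 21-40%; C 41-60%; D over 60% viable cells relative to DMSO control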
Experimental: The CellTiter-Glo® Luminescent Cell Viability Assay (Promega Corporation. Madison, Wis., USA) is method a determining the number of viable cells in culture based on quantification of the ATP being present which is an indicator of metabolically active cells was used according to manufacturers protocol. In detail the assay was performed in a 96 well format were 1000 cells/well were incubated with compound at concentration 10 μM as well as DMSO control for 72 h in 100 μl cell culture medium. Percentage of inhibition was calculated compared to ATP amount of DMSO control.

[11] = Homo sapiens, C8161 cells, read-out: IC50 Wound healing Assay C8161
[12] = SF763 cells, read-out: IC50 Wound healing Assay SF763
[13] = Homo sapiens, C8161 cells, read-out: Total branching inhibition in Matrigel C8161
[14] = Homo sapiens, Hs-578T, Hs578T cells, read-out: Total branching inhibition in Matrigel Hs578T
[15] = U118 cells, read-out: Total branching inhibition in Matrigel U118
[16] = U138 cells, read-out: Total branching inhibition in Matrigel U138
[17] = Homo sapiens, HCT-116, HCT116 def, read-out: percentage (%) of viable cells HCT 116def
[18] = Homo sapiens, HCT-116, HCT116 wt, read-out: percentage (%) of viable cells HCT 116wt
[19] = Homo sapiens, HT-29, HT29, read-out: percentage (%) of viable cells HT29
[20] = Homo sapiens, NCI-H358, H358, read-out: percentage (%) of viable cells H358
[21] = Homo sapiens, NCI-H1650, H1650, read-out: percentage (%) of viable cells H1650
[22] = Homo sapiens, NCI-H1666, H1666, read-out: percentage (%) of viable cells H1666
[23] = Homo sapiens, NCI-H1975, H1975, read-out: percentage (%) of viable cells H1975
[24] = Homo sapiens, NCI-H1993, H1993, read-out: percentage (%) of viable cells H1993
[25] = Homo sapiens, A549, read-out: percentage (%) of viable cells A549
[26] = Homo sapiens, HCC827, read-out: percentage (%) of viable cells HCC827
[27] = Homo sapiens, SW480, read-out: percentage (%) of viable cells SW480
[28] = RKO, read-out: percentage (%) of viable cells RKO

Row | Structure (SMILES) | IC50 [1] [µM] | IC50 [2] [µM] | IC50 [3] [µM] | IC50 [4] [µM] | IC50 [5] [µM] | IC50 [6, 11] [µM] | IC50 [6, 12] [µM] | IC50 [8, 13] [µM] | IC50 [8, 14] [µM] | IC50 [8, 15] [µM] | IC50 [8, 16] [µM] | IC50 [9] [µM] | viability at 10 µM [10, 17] [%] | viability at 10 µM [10, 18] [%] | viability at 10 µM [10, 19] [%] | viability at 10 µM [10, 20] [%] | viability at 10 µM [10, 21] [%] | viability at 10 µM [10, 22] [%] | viability at 10 µM [10, 23] [%] | viability at 10 µM [10, 24] [%] | also measured
1 | COc1cc2c(Oc3ccc(NS(=O)(=O)c4ccccc4C#N)cc3F)ccnc2cc1OCCCN1CCN(C)CC1 [Example 15, 2-Cyano-N-(3-fluoro-4-{6-methoxy-7-[3-(4-methyl-piperazin-1-yl)-propoxy]-quinolin-4-yloxy}-phenyl)-benzenesulfonamide] | ≤ 12.5 | ≤ 12.5 | ≤ 12.5 | ≤ 12.5 | ≤ 12.5 | 12.5 to 50 | ≤ 12.5 | ≤ 5 | ≤ 5 | ≤ 5 | ≤ 5 | ≤ 5 | > 60 | > 60 | 41 to 60 | 41 to 60 | 41 to 60 | 41 to 60 | 41 to 60 | 21 to 40 | IC50 [7]: ≤ 10 µM; viability at 10 µM [10, 25]: > 60%; viability at 10 µM [10, 26]: > 60%; viability at 10 µM [10, 27]: 21 to 40%; viability at 10 µM [10, 28]: 41 to 60%; melting point: 109 to 111 °C
2 | COc1cc2c(Oc3ccc(NS(=O)(=O)c4ccc(F)cc4F)cc3F)ccnc2cc1OCCCN1CCN(C)CC1 [Example 16, 2,4-Difluoro-N-(3-fluoro-4-{6-methoxy-7-[3-(4-methyl-piperazin-1-yl)-propoxy]-quinolin-4-yloxy}-phenyl)-benzenesulfonamide] | ≤ 12.5 | ≤ 12.5 | ≤ 12.5 | ≤ 12.5 | ≤ 12.5 | 12.5 to 50 | 12.5 to 50 | ≤ 5 | 5 to 50 | 5 to 50 | ≤ 5 | ≤ 5 | 41 to 60 | 41 to 60 | 21 to 40 | 0 to 20 | 21 to 40 | 41 to 60 | 0 to 20 | 21 to 40 | viability at 10 µM [10, 25]: 41 to 60%; viability at 10 µM [10, 26]: 41 to 60%; viability at 10 µM [10, 27]: 0 to 20%; viability at 10 µM [10, 28]: 21 to 40%; melting point: 99 to 102 °C
3 | CCN(CC)CCCOc1cc2nccc(Oc3ccc(NS(=O)(=O)c4ccccc4C(F)(F)F)cc3F)c2cc1OC [Example 101, N-{4-[7-(3-Diethylamino-propoxy)-6-methoxy-quinolin-4-yloxy]-3-fluoro-phenyl}-2-trifluoromethyl-benzenesulfonamide] | ≤ 12.5 | ≤ 12.5 | 12.5 to 50 | ≤ 12.5 | ≤ 12.5 | 12.5 to 50 | 12.5 to 50 | ≤ 5 | 5 to 50 | ≤ 5 | 5 to 50 | ≤ 5 | 21 to 40 | 21 to 40 | 0 to 20 | 0 to 20 | 41 to 60 | 41 to 60 | 41 to 60 | 21 to 40 | IC50 [7]: 10 to 25 µM; viability at 10 µM [10, 25]: 41 to 60%; viability at 10 µM [10, 26]: 21 to 40%; viability at 10 µM [10, 27]: 0 to 20%; viability at 10 µM [10, 28]: 0 to 20%
